One assay has as its target T1, Rat FAAH-1 (Rattus norvegicus, UniProt P97612).
T1 sequence (P97612 1-579): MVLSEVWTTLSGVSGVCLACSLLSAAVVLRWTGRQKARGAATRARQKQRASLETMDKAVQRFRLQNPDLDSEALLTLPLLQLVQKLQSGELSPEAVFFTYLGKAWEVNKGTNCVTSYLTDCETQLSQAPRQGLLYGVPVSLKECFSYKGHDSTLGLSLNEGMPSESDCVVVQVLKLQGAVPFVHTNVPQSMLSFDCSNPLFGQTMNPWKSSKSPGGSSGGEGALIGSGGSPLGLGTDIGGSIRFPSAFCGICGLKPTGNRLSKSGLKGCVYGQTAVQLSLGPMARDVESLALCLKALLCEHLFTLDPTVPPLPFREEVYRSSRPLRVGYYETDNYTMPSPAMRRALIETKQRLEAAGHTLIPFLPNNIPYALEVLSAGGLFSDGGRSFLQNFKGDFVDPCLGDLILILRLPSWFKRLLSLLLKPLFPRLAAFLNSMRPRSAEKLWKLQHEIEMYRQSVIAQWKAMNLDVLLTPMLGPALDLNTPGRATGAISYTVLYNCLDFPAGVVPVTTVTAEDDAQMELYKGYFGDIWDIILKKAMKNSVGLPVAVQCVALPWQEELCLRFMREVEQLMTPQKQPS
Nature of the assay: Assay Method 2: rat FAAH-1 assay, 3H-anandamide hydrolysis in homogenate of SK-N-MC cells transfected with rat FAAH.

For the next assay, the target named is T2, FAAH (Homo sapiens, UniProt O00519).
T2 sequence (O00519 1-579): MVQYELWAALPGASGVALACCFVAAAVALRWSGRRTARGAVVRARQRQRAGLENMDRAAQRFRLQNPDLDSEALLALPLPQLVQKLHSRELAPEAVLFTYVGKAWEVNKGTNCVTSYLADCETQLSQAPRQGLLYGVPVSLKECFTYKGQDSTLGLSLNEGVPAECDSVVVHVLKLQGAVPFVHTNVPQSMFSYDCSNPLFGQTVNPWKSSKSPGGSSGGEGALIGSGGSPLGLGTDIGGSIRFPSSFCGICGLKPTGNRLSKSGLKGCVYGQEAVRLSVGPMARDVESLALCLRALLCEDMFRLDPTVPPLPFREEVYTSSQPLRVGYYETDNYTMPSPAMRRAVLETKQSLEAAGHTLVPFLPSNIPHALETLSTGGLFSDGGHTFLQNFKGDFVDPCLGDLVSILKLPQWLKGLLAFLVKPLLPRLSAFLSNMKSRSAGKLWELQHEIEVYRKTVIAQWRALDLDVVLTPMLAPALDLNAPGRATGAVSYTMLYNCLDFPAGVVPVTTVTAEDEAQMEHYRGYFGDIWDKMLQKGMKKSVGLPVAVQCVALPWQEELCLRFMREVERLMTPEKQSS
In words: Assay Method 1: FAAH assay, 3H-anandamide hydrolysis in homogenate of T84 cells or SK-N-MC cells transfected with human FAAH.

Bounds are passed on as bounds.

Experimental for Rat FAAH-1: The assay mixture consisted of 50 μL of the cell homogenate, 10 μL of the test compound, and 40 μL of anandamide [1-^3H-ethanolamine] (^3H-AEA, Perkin-Elmer, 10.3 Ci/mmol), which was added last, for a final tracer concentration of 80 nM. The reaction mixture was incubated at rt for 1 h. During the incubation, 96-well Multiscreen filter plates (catalog number MAFCNOB50; Millipore, Bedford, Mass., USA) were loaded with 25 μL of activated charcoal (Multiscreen column loader, catalog number MACL09625, Millipore) and washed once with 100 μL of MeOH. […] After the 1 h incubation, 60 μL of the reaction mixture were transferred to the charcoal plates, which were then assembled on top of the DYNEX plates using Centrifuge Alignment Frames (catalog number MACF09604, Millipore). The unbound labeled ethanolamine was centrifuged through to the bottom plate (5 min at 2000 rpm), which was preloaded with the scintillant, as described above. The plates were sealed and left at rt for 1 h before counting on a Hewlett Packard TopCount.

Regarding `OC(CNc1cc(-c2ccc(C(F)(F)F)c(Cl)c2)ncn1)c1ccc(-c2cccs2)cc1` (centres unmarked) [Example 194, 2-({6-[3-Chloro-4-(trifluoromethyl)phenyl]pyrimidin-4-yl}amino)-1-(4-thiophen-2-ylphenyl)ethanol], the IC50 against Rat FAAH-1 came to 210 nM; against FAAH, 11 nM.
As for `OC(CNc1cc(-c2ccc(C(F)(F)F)c(Cl)c2)ncn1)c1ccc(-c2ccccc2)cc1` (centres unmarked) [Example 195, 1-Biphenyl-4-yl-2-({6-[3-chloro-4-(trifluoromethyl)phenyl]pyrimidin-4-yl}amino)ethanol], the IC50 against Rat FAAH-1 came to 400 nM; against FAAH it was 10 nM.
For `OC(CNc1cc(-c2ccc(C(F)(F)F)c(Cl)c2)ncn1)c1cc2ccccc2s1` (centres unmarked) [Example 196, 1-(1-Benzothiophen-2-yl)-2-({6-[3-chloro-4-(trifluoromethyl)phenyl]pyrimidin-4-yl}amino)ethanol], in that order: 43 nM and 108 nM.
The matching figures for `OC(CNc1cc(-c2ccc(C(F)(F)F)c(Cl)c2)ncn1)c1ccc(C(F)(F)F)c(F)c1` (centres unmarked) [Example 197, 2-({6-[3-Chloro-4-(trifluoromethyl)phenyl]pyrimidin-4-yl}amino)-1-[3-fluoro-4-(trifluoromethyl)phenyl]ethanol]: 34 nM and 100 nM.
The matching figures for `OC(CNc1cc(-c2ccc(C(F)(F)F)c(Cl)c2)ncn1)c1cccc(SC(F)(F)F)c1` (centres unmarked) [Example 198, 2-({6-[3-chloro-4-(trifluoromethyl)phenyl]pyrimidin-4-yl}amino)-1-[3-[(trifluoromethyl)sulfanyl]phenyl]ethanol]: 25 nM and 92 nM.
`OC(CNc1cc(-c2ccc(C(F)(F)F)c(Cl)c2)ncn1)c1ccc2c(c1)OCCO2` (centres unmarked) [Example 199, 2-({6-[3-Chloro-4-(trifluoromethyl)phenyl]pyrimidin-4-yl}amino)-1-(2,3-dihydro-1,4-benzodioxin-6-yl)ethanol]: the IC50 against Rat FAAH-1 is 120 nM; against FAAH, 500 nM.
The matching figures for `OC(CNc1cc(-c2ccc(C(F)(F)F)c(Cl)c2)ncn1)c1ccc(-n2ccnc2)cc1` (centres unmarked) [Example 200, 2-({6-[3-Chloro-4-(trifluoromethyl)phenyl]pyrimidin-4-yl}amino)-1-[4-(1H-imidazol-1-yl)phenyl]ethanol]: 1600 nM and 165 nM.
For `OC(CNc1cc(-c2ccc(C(F)(F)F)c(Cl)c2)ncn1)c1csc2ccccc12` (centres unmarked) [Example 201, 1-(1-benzothiophen-3-yl)-2-({6-[3-chloro-4-(trifluoromethyl)phenyl]pyrimidin-4-yl}amino)ethanol], in that order: 170 nM and 170 nM.
With `COc1ccc(C(O)CNc2cc(-c3ccc(C(F)(F)F)c(Cl)c3)ncn2)cc1OC` (centres unmarked) [Example 202, 2-({6-[3-Chloro-4-(trifluoromethyl)phenyl]pyrimidin-4-yl}amino)-1-(3,4-dimethoxyphenyl)ethanol], the half-inhibitory concentration (IC50) amounted to 100 nM at Rat FAAH-1 and 225 nM against FAAH.
The matching figures for `COc1ccc(C(O)CNc2cc(-c3ccc(C(F)(F)F)c(Cl)c3)ncn2)cc1Cl` (centres unmarked) [Example 203, 1-(3-Chloro-4-methoxyphenyl)-2-({6-[3-chloro-4-(trifluoromethyl)phenyl]pyrimidin-4-yl}amino)ethanol]: 200 nM and 270 nM.
On to `OC(CNc1cc(-c2ccc(C(F)(F)F)c(Cl)c2)ncn1)c1ccc2c(c1)OCCCO2` (centres unmarked) [Example 204, 2-({6-[3-Chloro-4-(trifluoromethyl)phenyl]pyrimidin-4-yl}amino)-1-(3,4-dihydro-2H-1,5-benzodioxepin-7-yl)ethanol], for which the values for the IC50 at Rat FAAH-1 and on FAAH were 82 nM and 548 nM, respectively.
The matching figures for `OC(CNc1cc(-c2ccc(C(F)(F)F)c(Cl)c2)ncn1)c1cc(C(F)(F)F)ccc1F` (centres unmarked) [Example 205, 2-({6-[3-Chloro-4-(trifluoromethyl)phenyl]pyrimidin-4-yl}amino)-1-[2-fluoro-5-(trifluoromethyl)phenyl]ethanol]: 14 nM and 80 nM.
The matching figures for `N#Cc1cccc(C(O)CNc2cc(-c3ccc(C(F)(F)F)c(Cl)c3)ncn2)c1` (centres unmarked) [Example 206, 3-[2-({6-[3-Chloro-4-(trifluoromethyl)phenyl]pyrimidin-4-yl}amino)-1-hydroxyethyl]benzonitrile]: 15 nM and 25 nM.
The matching figures for `OC(CNc1cc(-c2ccc(C(F)(F)F)c(Cl)c2)ncn1)c1cc(-c2ccccc2)no1` (centres unmarked) [Example 207, 2-({6-[3-Chloro-4-(trifluoromethyl)phenyl]pyrimidin-4-yl}amino)-1-(3-phenylisoxazol-5-yl)ethanol]: 111 nM and 67 nM.
With `OC(CNc1cc(-c2ccc(C(F)(F)F)c(Cl)c2)ncn1)c1ccc(N2CCCC2)cc1` (centres unmarked) [Example 208, 2-({6-[3-Chloro-4-(trifluoromethyl)phenyl]pyrimidin-4-yl}amino)-1-(4-pyrrolidin-1-ylphenyl)ethanol], the IC50 against Rat FAAH-1 came to 500 nM; against FAAH, 28 nM.
Consider `OC(CNc1cc(-c2ccc(C(F)(F)F)c(Cl)c2)ncn1)c1ccc(-c2ccccn2)s1` (centres unmarked) [Example 209, 2-({6-[3-Chloro-4-(trifluoromethyl)phenyl]pyrimidin-4-yl}amino)-1-(5-pyridin-2-ylthiophen-2-yl)ethanol], for which the IC50 against Rat FAAH-1 was found to be 36 nM; against FAAH, 12 nM.
In the case of `N#Cc1cc(C(O)CNc2cc(-c3ccc(C(F)(F)F)c(Cl)c3)ncn2)ccc1F` (centres unmarked) [Example 210], the IC50 against Rat FAAH-1 and on FAAH was 20 nM in each case.
For `OC(CNc1cc(-c2ccc(C(F)(F)F)c(Cl)c2)ncn1)c1c(F)cccc1F` (centres unmarked) [Example 211, 2-({6-[3-Chloro-4-(trifluoromethyl)phenyl]pyrimidin-4-yl}amino)-1-(2,6-difluorophenyl)ethanol], the values for the IC50 on Rat FAAH-1 and at FAAH were 50 nM and 56 nM, respectively.
Take `OC(CNc1cc(-c2ccc(C(F)(F)F)c(Cl)c2)ncn1)c1ccccc1F` (centres unmarked) [Example 212, 2-({6-[3-Chloro-4-(trifluoromethyl)phenyl]pyrimidin-4-yl}amino)-1-(2-fluorophenyl)ethanol]: the concentration for half-maximal inhibition (IC50) against Rat FAAH-1 is 39 nM; against FAAH, 65 nM.
The matching figures for `OC(CNc1cc(-c2ccc(C(F)(F)F)c(Cl)c2)ncn1)c1cc(-c2ccc(Cl)c(Cl)c2)no1` (centres unmarked) [Example 213, 2-[6-(3-Chloro-4-trifluoromethyl-phenyl)-pyrimidin-4-ylamino]-1-[3-(3,4-dichloro-phenyl)-isoxazol-5-yl]-ethanol]: 400 nM and 22 nM.
For `OC(CNc1cc(-c2ccc(C(F)(F)F)c(Cl)c2)ncn1)c1cc(-c2ccc(Cl)cc2)no1` (centres unmarked) [Example 214, 1-[3-(4-Chloro-phenyl)-isoxazol-5-yl]-2-[6-(3-chloro-4-trifluoromethyl-Phenyl)-pyrimidin-4-ylamino]-ethanol], in that order: 160 nM and 36 nM.
The matching figures for `OC(CNc1cc(-c2ccc(C(F)(F)F)c(Cl)c2)ncn1)c1cc(-c2ccc(Cl)cc2Cl)no1` (centres unmarked) [Example 215, 2-[6-(3-Chloro-4-trifluoromethyl-phenyl)-pyrimidin-4-ylamino]-1-[3-(2,4-dichloro-phenyl)-isoxazol-5-yl]-ethanol]: 1000 nM and 240 nM.
With `OC(CNc1cc(-c2ccc(C(F)(F)F)c(Cl)c2)ncn1)c1nc2ccccc2s1` (centres unmarked) [Example 216, 1-Benzothiazol-2-yl-2-[6-(3-chloro-4-trifluoromethyl-phenyl)-pyrimidin-4-ylamino]-ethanol], the concentration for half-maximal inhibition (IC50) against Rat FAAH-1 and against FAAH was above 10000 nM each time.
In the case of `OC(CNc1cc(-c2ccc(C(F)(F)F)c(Cl)c2)ncn1)c1cc(C(F)(F)F)cc(C(F)(F)F)c1` (centres unmarked) [Example 217, 1-[3,5-Bis(trifluoromethyl)phenyl]-2-({6-[3-chloro-4-(trifluoromethyl)phenyl]pyrimidin-4-yl}amino)ethanol], the results for the IC50 against Rat FAAH-1 and against FAAH were 8000 nM and above 10000 nM, respectively.
For the compound `OC(CNc1cc(-c2ccc(C(F)(F)F)c(Cl)c2)ncn1)c1cc2cc(Br)ccc2s1` (centres unmarked) [Example 218, 1-(5-Bromo-1-benzothiophen-2-yl)-2-({6-[3-chloro-4-(trifluoromethyl)phenyl]pyrimidin-4-yl}amino)ethanol], the results for the IC50 on Rat FAAH-1 and against FAAH were 1000 nM and above 10000 nM, respectively.

Source of the values: patent US8598202B2, “Aryl-hydroxyethylamino-pyrimidines and triazines as modulators of fatty acid amide hydrolase” (Janssen Pharmaceutica NV, priority 2008, dated 2013).
